Calls of active or inactive are those of the source. No rule for the calls is given here.

This data set deals with CCRIS mutagenicity, Ames/micronucleus/aberration tests. The data set can be described thus: CCRIS mutagenicity studies.
[1] abbreviates: Test System: AMES SALMONELLA TYPHIMURIUM, Strain/Indicator: TA98, Metabolic Activation: NONE, Method: STANDARD PLATE.
[2] abbreviates: Test System: AMES SALMONELLA TYPHIMURIUM, Strain/Indicator: TA100, Metabolic Activation: NONE, Method: STANDARD PLATE.
The mark [3] stands for this setting: Test System: AMES SALMONELLA TYPHIMURIUM, Strain/Indicator: TA1535, Metabolic Activation: NONE, Method: STANDARD PLATE.
Where [4] appears, read: Test System: AMES SALMONELLA TYPHIMURIUM, Strain/Indicator: TA1537, Metabolic Activation: NONE, Method: STANDARD PLATE.
Where [5] appears, read: Test System: AMES SALMONELLA TYPHIMURIUM, Strain/Indicator: TA98, Metabolic Activation: S-9, Method: STANDARD PLATE.
[6] abbreviates: Test System: AMES SALMONELLA TYPHIMURIUM, Strain/Indicator: TA100, Metabolic Activation: S-9, Method: STANDARD PLATE.

For `Oc1ccc2sc3ccccc3c2c1`, for the setting “Test System: CHINESE HAMSTER OVARY, Strain/Indicator: CHO-K1-BH4 (HGPRT)/6-THIOGUANINE, Metabolic Activation: RAT, LIVER, S-9, AROCLOR (4%)”, the mutagenic call is “active; positive”.

As for `Cc1cn2c([N+](=O)[O-])c(-c3ccc([N+](=O)[O-])cc3)nc2s1`, the mutagenic call is “active; positive” under setting [1]; “active; positive” under setting [2]; “active; positive” under setting [3]; “active; positive” under setting [4]; “active; positive” (Test System: AMES SALMONELLA TYPHIMURIUM, Strain/Indicator: TA1538, Metabolic Activation: NONE, Method: STANDARD PLATE).

On to `Nc1snc2ccc([N+](=O)[O-])cc12`, for which the mutagenic call by setting is: under setting [1], “active; positive”; under setting [5], “active; positive”; under setting [2], “active; positive”; under setting [6], “active; positive”; under setting [3], “inactive; negative”; (Test System: AMES SALMONELLA TYPHIMURIUM, Strain/Indicator: TA1535, Metabolic Activation: S-9, Method: STANDARD PLATE) “inactive; negative”. Besides, the mutagenic call is, setting by setting: under setting [4], “active; positive”; (Test System: AMES SALMONELLA TYPHIMURIUM, Strain/Indicator: TA1537, Metabolic Activation: S-9, Method: STANDARD PLATE) “active; positive”.

In the case of `COc1cc(Oc2ccc(Cl)cc2Cl)ccc1[N+](=O)[O-]`, the mutagenic call under setting [5] is “inactive; negative”; the mutagenic call under setting [2] is “active; positive”; the mutagenic call under setting [6] is “inactive; negative”; the mutagenic call (Test System: AMES SALMONELLA TYPHIMURIUM, Strain/Indicator: TA100, Metabolic Activation: S-9 MIX, Method: STANDARD PLATE) was “inactive; negative”; the mutagenic call (Test System: AMES SALMONELLA TYPHIMURIUM, Strain/Indicator: YG1021, Metabolic Activation: NONE, Method: PREINCUBATION) was “active; positive”; the mutagenic call (Test System: AMES SALMONELLA TYPHIMURIUM, Strain/Indicator: YG1021, Metabolic Activation: RAT, LIVER, S-9, PCB, Method: PREINCUBATION) is “active; positive”. The mutagenic call runs as follows: (Test System: AMES SALMONELLA TYPHIMURIUM, Strain/Indicator: YG1021, Metabolic Activation: S-9, Method: STANDARD PLATE) “inactive; negative”; (Test System: AMES SALMONELLA TYPHIMURIUM, Strain/Indicator: YG1024, Metabolic Activation: S-9, Method: STANDARD PLATE) “inactive; negative”; (Test System: AMES SALMONELLA TYPHIMURIUM, Strain/Indicator: YG1026, Metabolic Activation: NONE, Method: PREINCUBATION) “active; positive”; (Test System: AMES SALMONELLA TYPHIMURIUM, Strain/Indicator: YG1026, Metabolic Activation: RAT, LIVER, S-9, PCB, Method: PREINCUBATION) “active; positive”; (Test System: AMES SALMONELLA TYPHIMURIUM, Strain/Indicator: YG1026, Metabolic Activation: S-9, Method: STANDARD PLATE) “inactive; negative”; (Test System: AMES SALMONELLA TYPHIMURIUM, Strain/Indicator: YG1029, Metabolic Activation: S-9, Method: STANDARD PLATE) “inactive; negative”.

`Nc1nccs1`: the mutagenic call runs as follows: (Test System: AMES SALMONELLA TYPHIMURIUM, Strain/Indicator: TA98, Metabolic Activation: RAT, LIVER, S-9, AROCLOR 1254, HAMSTER, LIVER, S-9, AROCLOR 1254, Method: STANDARD PLATE) “active; positive”; (Test System: AMES SALMONELLA TYPHIMURIUM, Strain/Indicator: TA1538, Metabolic Activation: RAT, LIVER, S-9, AROCLOR 1254, HAMSTER, LIVER, S-9, AROCLOR 1254, Method: STANDARD PLATE) “active; positive”; (Test System: MOUSE LYMPHOMA, Strain/Indicator: L5178Y (TK+/TK-), Metabolic Activation: NONE, Method: SUSPENSION/PLATE) “active; positive. reevaluation of results: equivocal”; (Test System: MOUSE LYMPHOMA, Strain/Indicator: L5178Y (TK+/TK-), Metabolic Activation: RAT, LIVER, S-9, AROCLOR 1254, Method: SUSPENSION/PLATE) “active; positive. reevaluation of results: equivocal”.

As for `Oc1ccc(Cc2ccccc2O)cc1`, the mutagenic call was “inactive; negative” (Test System: AMES SALMONELLA TYPHIMURIUM, Strain/Indicator: TA98, Metabolic Activation: NONE, Method: PREINCUBATION); “inactive; negative” (Test System: AMES SALMONELLA TYPHIMURIUM, Strain/Indicator: TA98, Metabolic Activation: RAT LIVER S-9, PHENOBARBITAL AND BETA-NAPHTHOFLAVONE, Method: PREINCUBATION); “inactive; negative” (Test System: AMES SALMONELLA TYPHIMURIUM, Strain/Indicator: TA100, Metabolic Activation: NONE, Method: PREINCUBATION); “inactive; negative” (Test System: AMES SALMONELLA TYPHIMURIUM, Strain/Indicator: TA100, Metabolic Activation: RAT LIVER S-9, PHENOBARBITAL AND BETA-NAPHTHOFLAVONE, Method: PREINCUBATION); “inactive; negative” (Test System: AMES SALMONELLA TYPHIMURIUM, Strain/Indicator: TA1535, Metabolic Activation: NONE, Method: PREINCUBATION); “inactive; negative” (Test System: AMES SALMONELLA TYPHIMURIUM, Strain/Indicator: TA1535, Metabolic Activation: RAT LIVER S-9, PHENOBARBITAL AND BETA-NAPHTHOFLAVONE, Method: PREINCUBATION). Further, the mutagenic call runs as follows: (Test System: AMES SALMONELLA TYPHIMURIUM, Strain/Indicator: TA1537, Metabolic Activation: NONE, Method: PREINCUBATION) “inactive; negative”; (Test System: AMES SALMONELLA TYPHIMURIUM, Strain/Indicator: TA1537, Metabolic Activation: RAT LIVER S-9, PHENOBARBITAL AND BETA-NAPHTHOFLAVONE, Method: PREINCUBATION) “inactive; negative”; (Test System: E.COLI, Strain/Indicator: WP2UVRA/PKM101, Metabolic Activation: NONE, Method: PREINCUBATION) “inactive; negative”; (Test System: E.COLI, Strain/Indicator: WP2UVRA/PKM101, Metabolic Activation: RAT LIVER S-9, PHENOBARBITAL AND BETA-NAPHTHOFLAVONE, Method: PREINCUBATION) “inactive; negative”.

Regarding `Nc1ccc2c(O)cc(S(=O)(=O)O)cc2c1`, the mutagenic call by setting is: (End Point: IN VITRO CHROMOSOMAL ABERRATIONS, Test System: CHL CELLS, Metabolic Activation: NONE) “inactive; negative”; (End Point: IN VITRO CHROMOSOMAL ABERRATIONS, Test System: CHL CELLS, Metabolic Activation: RAT, LIVER, S-9, SODIUM PHENOBARBITAL AND 5,6-BENZOFLAVONE) “active; positive”.

Consider `Nc1ccc(/C=C/c2ccc([N+](=O)[O-])cc2)cc1`, for which the mutagenic call is “inactive; negative” (Test System: AMES SALMONELLA TYPHIMURIUM, Strain/Indicator: TA98 (NR), Metabolic Activation: NONE, Method: STANDARD PLATE); “active; positive” (Test System: AMES SALMONELLA TYPHIMURIUM, Strain/Indicator: TA98 (NR), Metabolic Activation: S-9, Method: STANDARD PLATE); “active; positive” under setting [1]; “active; positive” under setting [5]; “inactive; negative” (Test System: AMES SALMONELLA TYPHIMURIUM, Strain/Indicator: TA100 (NR), Metabolic Activation: NONE, Method: STANDARD PLATE); “active; positive” (Test System: AMES SALMONELLA TYPHIMURIUM, Strain/Indicator: TA100 (NR), Metabolic Activation: S-9, Method: STANDARD PLATE). Further, the mutagenic call is “inactive; negative” under setting [2] and “active; positive” under setting [6].

As for `Cc1ccc(Cl)c(N)c1`, the mutagenic call (Test System: UDS RODENT HEPATOCYTES, Strain/Indicator: THY INCORP (NON-S-PHASE), Metabolic Activation: NONE, Method: AUTORADIOGRAPHY) is “inactive; negative”.

Consider `Cc1cc2[nH]c3cc(C)c4ccccc4c3c2c2ccccc12`, for which the mutagenic call (Test System: AMES SALMONELLA TYPHIMURIUM, Strain/Indicator: TA100, Metabolic Activation: RAT, LIVER, S-9, AROCLOR 1254, Method: STANDARD PLATE) is “active; positive”.

On to `Nc1ccc2c3c(cccc13)C(=O)c1ccccc1-2`, for which the mutagenic call (End Point: In vivo micronucleus, Test System: lacZ mutant frequency in liver, lung, and bone marrow cells, Species: Mouse, Strain/Sex: Big Blue (BALB/c x DBA2)/Male, Route: Oral) is “active; positive in liver and bone marrow”.

For the origin of these results see PubChem BioAssay AID1259407 (Chemical Carcinogenesis Research Information System (CCRIS), 2018).
